# Assay results as given in ChEMBL document CHEMBL5360646, “Optimization of M3 Antagonist-PDE4 Inhibitor (MAPI) Dual Pharmacology Molecules for the Treatment of COPD” (J Med Chem, 2023).
# Key:
# [1] = tested on: Rattus norvegicus; test: Anti-inflammatory activity against OVA-sensitized Brown-Norway rat airway inflammation model assessed as inhibition of OVA-induced eosinophil influx at 100 nmol/kg,IT(Intratracheal) pretreated 2 hrs prior to OVA challenge by automated cell counter analysis; type: functional; parameters: scale not given: the % may be the effect or the level left
# [2] = tested on: Rattus norvegicus; test: Anti-inflammatory activity against OVA-sensitized Brown-Norway rat airway inflammation model assessed as inhibition of OVA-induced eosinophil influx at 1000 nmol/kg,IT(Intratracheal) pretreated 24 hrs prior to OVA challenge and measured after 48 hrs by automated cell counter analysis; type: functional; parameters: scale not given: the % may be the effect or the level left; details: time 72 hrs
# [3] = tested on: Trachea; test: Bronchoconstriction activity in Sprague-Dawley rat trachea assessed as inhibition of carbachol-induced tracheal contraction; type: functional, tissue-based; details: for IC50: Rattus norvegicus, Sprague-Dawley, Trachea
# [4] = Antiinflammatory activity against LPS-stimulated human PBMC cells assessed reduction in TNFalpha level incubated for 18 hrs by ELISA analysis; type: functional, cell-based; details: for IC50: Homo sapiens, PBMC, 18 h; for pIC50: pbmc
# [5] = molecular target: Muscarinic acetylcholine receptor M3 (Homo sapiens, UniProt P20309); test: Displacement of [3H]N-methylscopolamine chloride from human muscarinic M3 receptor incubated for 2 hrs by radioligand binding assay
# Chain of Muscarinic acetylcholine receptor M3 (P20309 whole entry): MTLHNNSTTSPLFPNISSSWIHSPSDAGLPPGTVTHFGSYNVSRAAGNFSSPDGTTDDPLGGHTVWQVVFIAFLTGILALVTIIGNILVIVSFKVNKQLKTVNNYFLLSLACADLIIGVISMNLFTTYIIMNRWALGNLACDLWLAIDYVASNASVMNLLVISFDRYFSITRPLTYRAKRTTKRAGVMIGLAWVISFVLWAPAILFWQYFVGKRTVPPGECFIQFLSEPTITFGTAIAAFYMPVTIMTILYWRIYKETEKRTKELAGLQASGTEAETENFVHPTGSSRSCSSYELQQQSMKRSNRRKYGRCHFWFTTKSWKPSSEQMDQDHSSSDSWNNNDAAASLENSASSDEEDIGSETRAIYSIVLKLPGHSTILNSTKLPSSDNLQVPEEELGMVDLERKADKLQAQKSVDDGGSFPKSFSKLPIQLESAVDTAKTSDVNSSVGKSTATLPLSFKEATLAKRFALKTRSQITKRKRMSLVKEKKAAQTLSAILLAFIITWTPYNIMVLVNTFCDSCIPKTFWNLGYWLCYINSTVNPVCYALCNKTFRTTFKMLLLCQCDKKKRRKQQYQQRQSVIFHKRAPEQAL
# [6] = molecular target: 3',5'-cyclic-AMP phosphodiesterase 4B (Homo sapiens, UniProt Q07343); test: Inhibition of human recombinant PDE4B2 expressed in baculovirus expression system using cAMP as substrate incubated for 2 hrs by HTRF assay
# Chain of 3',5'-cyclic-AMP phosphodiesterase 4B (Q07343 whole entry): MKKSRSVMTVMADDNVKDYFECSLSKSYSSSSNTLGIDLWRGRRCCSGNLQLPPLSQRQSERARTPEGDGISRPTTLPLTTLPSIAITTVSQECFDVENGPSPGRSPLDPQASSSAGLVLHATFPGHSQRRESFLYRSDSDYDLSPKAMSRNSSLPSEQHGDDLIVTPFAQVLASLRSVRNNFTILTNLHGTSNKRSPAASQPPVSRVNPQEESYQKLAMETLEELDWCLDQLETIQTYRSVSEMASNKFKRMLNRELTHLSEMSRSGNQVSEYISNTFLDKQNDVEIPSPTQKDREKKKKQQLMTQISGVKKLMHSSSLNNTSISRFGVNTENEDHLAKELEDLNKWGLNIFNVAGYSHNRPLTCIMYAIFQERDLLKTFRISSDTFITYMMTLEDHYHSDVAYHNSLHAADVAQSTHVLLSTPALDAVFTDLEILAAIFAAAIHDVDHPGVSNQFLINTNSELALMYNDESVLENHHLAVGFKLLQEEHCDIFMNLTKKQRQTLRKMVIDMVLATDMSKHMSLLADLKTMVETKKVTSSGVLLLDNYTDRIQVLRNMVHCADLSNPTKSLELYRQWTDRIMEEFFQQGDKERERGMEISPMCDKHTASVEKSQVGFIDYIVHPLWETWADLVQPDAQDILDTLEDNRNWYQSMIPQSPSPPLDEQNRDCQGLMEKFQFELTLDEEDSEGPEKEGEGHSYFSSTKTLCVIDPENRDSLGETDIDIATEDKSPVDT
# [7] = Metabolic stability in human liver microsomes assessed as intrinsic clerance at 1 uM and measured upto 60 mins by HPLC-MS/MS analysis; type: ADME, Microsome; details: for CLH: microsomes, 1 h, 1 µM; for microsomal CLint at 1 µM: liver microsomes, read-out: CLH
# [8] = Metabolic stability in rat lung S9 fraction assessed as half life at 1 uM and measured upto 60 mins in presence of NADPH by LC-MS/MS analysis; type: ADME, subcellular; details: for t1/2: s9, 1 h, 1 µM, 1 h
# [9] = Metabolic stability in rat liver microsomes assessed as intrinsic clerance at 1 uM and measured upto 60 mins by HPLC-MS/MS analysis; type: ADME, Microsome; details: microsomes, 1 h, 1 µM
# [10] = Metabolic stability in human lung S9 fraction assessed as half life at 1 uM and measured upto 60 mins in presence of NADPH by LC-MS/MS analysis; type: ADME, subcellular; details: for t1/2: s9, 1 h, 1 µM, 1 h; for half-life at 1 µM: lung S9 fraction
# [11] = Metabolic stability in human plasma assessed as half life at 5 uM and measured upto 180 mins by HPLC-MS/MS analysis; type: ADME, cell-free
# [12] = Metabolic stability in rat plasma assessed as half life at 5 uM and measured upto 180 mins by HPLC-MS/MS analysis; type: ADME, cell-free; details: for t1/2: 3 h, 5 µM
# [13] = tested on: Rattus norvegicus; test: Anti-bronchospastic activity in carbachol-induced bronchospasm Sprague-Dawley rat model assessed as inhibition of carbachol-induced bronchoconstriction at 30 nmol/kg, IT(Intratracheal) administered 16 hr prior to carbachol challenge; type: functional; parameters: scale not given: the % may be the effect or the level left
# [14] = tested on: Rattus norvegicus; test: Anti-bronchospastic activity in carbachol-induced bronchospasm Sprague-Dawley rat model assessed as inhibition of carbachol-induced bronchoconstriction administered IT(Intratracheal) for 1 hr prior to carbachol challenge; type: functional
# [15] = tested on: Rattus norvegicus; test: Anti-bronchospastic activity in carbachol-induced bronchospasm Sprague-Dawley rat model assessed as inhibition of carbachol-induced bronchoconstriction at 30 nmol/kg, IT(Intratracheal) administered 1 hr prior to carbachol challenge; type: functional; parameters: scale not given: the % may be the effect or the level left
# [16] = tested on: Rattus norvegicus; test: Anti-bronchospastic activity in carbachol-induced bronchospasm Sprague-Dawley rat model assessed as inhibition of carbachol-induced bronchoconstriction at 10 nmol/kg, IT(Intratracheal) administered 1 hr prior to carbachol challenge; type: functional; parameters: scale not given: the % may be the effect or the level left
# [17] = Ratio of ED50 for Anti-inflammatory activity against OVA-sensitized Brown-Norway rat airway inflammation model to ED50 for Anti-bronchospastic activity in carbachol-induced bronchospasm Sprague-Dawley rat model; type: functional
# [18] = tested on: Rattus norvegicus; test: Anti-inflammatory activity against OVA-sensitized Brown-Norway rat airway inflammation model assessed as inhibition of OVA-induced eosinophil influx administered IT(Intratracheal) 2 hrs prior to OVA challenge; type: functional
# [19] = tested on: Rattus norvegicus; test: Anti-bronchospastic activity in carbachol-induced bronchospasm Sprague-Dawley rat model assessed as inhibition of carbachol-induced bronchoconstriction at 10 nmol/kg, IT(Intratracheal) administered 16 hr prior to carbachol challenge; type: functional; parameters: scale not given: the % may be the effect or the level left
# [20] = Toxicity in ferret assessed as appearance of nausea-like behavior at 10 nmol/kg, IT(Intratracheal) and measured for 4 hrs by behavioral analysis; parameters: species or system Mustela putorius furo; details: in vivo, inhaled_or_intranasal
# [21] = Toxicity in ferret assessed as appearance of nausea-like behavior at 10 nmol/kg,po and measured for 4 hrs by behavioral analysis; parameters: species or system Mustela putorius furo; details: in vivo
# [22] = Toxicity in ferret assessed as emetic response at 10 nmol/kg, IT(Intratracheal) and measured for 4 hrs by behavioral analysis; parameters: species or system Mustela putorius furo; details: in vivo, inhaled_or_intranasal
# [23] = Toxicity in ferret assessed as emetic response at 10 nmol/kg,po and measured for 4 hrs by behavioral analysis; parameters: species or system Mustela putorius furo; details: in vivo
# [24] = Toxicity in pilocarpine hydrochloride induced salivation Sprague-Dawley rat model assessed as inhibition of salivary secretion at 3 mM,INH for 10 mins; details: Sprague-Dawley, in vivo, inhaled or intranasal, read-out: Activity
# [25] = Rattus norvegicus, Sprague-Dawley, read-out: ED50
smiles,measurement,setting,value
C[C@@H]1C[C@H]2[C@@H]3C[C@H](F)C4=CC(=O)C=C[C@]4(C)[C@@]3(F)[C@@H](O)C[C@]2(C)[C@@]1(OC(=O)c1ccco1)C(=O)SCF [FLUTICASONE FUROATE],Activity,[1],>100%
same,Activity,[2],>100%
CCC(NCc1ccc(C(=O)O[C@@H](Cc2c(Cl)c[n+]([O-])cc2Cl)c2ccc(OC)c(OC)c2)s1)(C(=O)O[C@H]1CN2CCC1CC2)c1ccccc1 (stereo in doubt; 2f),IC50,[3],25.1 nM
same,IC50,[4],2.51 nM
same,Ki,[5],0.316 nM
same,IC50,[6],2.51 nM
COc1ccc([C@H](Cc2c(Cl)c[n+]([O-])cc2Cl)OC(=O)c2ccc(CNC(C)(C(=O)O[C@H]3CN4CCC3CC4)c3ccccc3)s2)cc1OC (stereo in doubt; 1s),CLH,[7],481 µL/min/mg
same,pIC50,[3],8.5
same,t1/2,[8],1.82 h
same,CLH,[9],48 µL/min/mg
same,t1/2,[10],2.08 h
same,pIC50,[4],7.9
same,Ki,[5],0.158 nM
same,IC50,[6],1.26 nM
same,t1/2,"[11]; 3 h, 5 µM",3.18 h
same,t1/2,[12],0.983 h
CCC(NCc1ccc(C(=O)O[C@@H](Cc2c(Cl)c[n+]([O-])cc2Cl)c2ccc(OC)c(OC)c2)s1)(C(=O)O[C@H]1CN2CCC1CC2)c1ccccc1 (stereo in doubt; 2s),Ki,[5],3.98 nM
same,IC50,[6],3.16 nM
COc1ccc([C@H](Cc2c(Cl)c[n+]([O-])cc2Cl)OC(=O)c2ccc(CNC(CO)(C(=O)O[C@H]3CN4CCC3CC4)c3ccccc3)s2)cc1OC (stereo in doubt; 3f),microsomal CLint at 1 µM,[7],331 µL/min/mg
same,Activity,[13],28%
same,pIC50,[3],7.4
same,ED50,[14],2.9 nmol/kg
same,half-life at 1 µM,[8]; lung S9 fraction,1.37 h
same,CLH,[9],32 µL/min/mg
same,half-life at 1 µM,[10],1.32 h
same,IC50,[4],0.501 nM
same,Ki,[5],0.631 nM
same,IC50,[6],0.631 nM
same,Activity,[15],88%
same,half-life at 5 µM,[11],> 4 h
same,half-life at 5 µM,[12],2.1 h
COc1ccc([C@H](Cc2c(Cl)c[n+]([O-])cc2Cl)OC(=O)c2ccc(CNC(CO)(C(=O)O[C@H]3CN4CCC3CC4)c3ccccc3)c(OCC3CC3)c2)cc1OC (stereo in doubt; 9s),Ki,[5],> 50.1 nM
same,IC50,[6],0.794 nM
CN(C)C(=O)c1cccc(S(=O)(=O)N2CCC[C@H]2C(=O)O[C@@H](Cc2c(Cl)c[n+]([O-])cc2Cl)c2ccc(OC(F)F)c(OCC3CC3)c2)c1,IC50,[6],0.0398 nM
COCC(NCc1ccc(C(=O)O[C@@H](Cc2c(Cl)c[n+]([O-])cc2Cl)c2ccc(OC)c(OC)c2)s1)(C(=O)O[C@H]1CN2CCC1CC2)c1ccccc1 (stereo in doubt; 4f),Ki,[5],3.16 nM
same,IC50,[6],1 nM
COc1ccc([C@H](Cc2c(Cl)c[n+]([O-])cc2Cl)OC(=O)c2ccc(CNC(C(=O)O[C@H]3CN4CCC3CC4)c3ccccc3)c(OCC3CC3)c2)cc1OC (stereo partly specified),Ki,[5],2.51 nM
same,IC50,[6],1 nM
COc1ccc([C@H](Cc2c(Cl)c[n+]([O-])cc2Cl)OC(=O)c2ccc(CNC(CO)(C(=O)O[C@H]3CN4CCC3CC4)c3ccccc3)c(OCC3CC3)c2)cc1OC (stereo in doubt; 9f),Ki,[5],31.6 nM
same,IC50,[6],0.501 nM
CS(=O)(=O)N1CCC[C@H]1C(=O)O[C@@H](Cc1c(Cl)c[n+]([O-])cc1Cl)c1ccc(OC(F)F)c(OCC2CC2)c1,IC50,[6],0.501 nM
CCOc1cc(C(=O)O[C@@H](Cc2c(Cl)c[n+]([O-])cc2Cl)c2ccc(OC)c(OC)c2)ccc1CNC(C(=O)O[C@H]1CN2CCC1CC2)c1ccccc1 (stereo partly specified),Ki,[5],1 nM
same,IC50,[6],7.94 nM
COc1ccc([C@H](Cc2c(Cl)c[n+]([O-])cc2Cl)OC(=O)c2ccc(CNC(C(=O)O[C@H]3CN4CCC3CC4)c3ccccc3)cc2)cc1OC (stereo partly specified),Ki,[5],0.251 nM
same,IC50,[6],2.51 nM
COc1ccc([C@H](Cc2c(Cl)c[n+]([O-])cc2Cl)OC(=O)c2ccc(CNC(C)(C(=O)O[C@H]3CN4CCC3CC4)c3ccccc3)s2)cc1OC (stereo in doubt; 1f),microsomal CLint at 1 µM,[7],470 µL/min/mg
same,IC50,[3],2.51 nM
same,t1/2,[8],4.67 h
same,CLH,[9],481 µL/min/mg
same,half-life at 1 µM,[10],1.83 h
same,IC50,[4],15.8 nM
same,Ki,[5],0.2 nM
same,IC50,[6],3.98 nM
same,half-life at 5 µM,[11],2.9 h
same,half-life at 5 µM,[12],1.43 h
COc1ccc([C@H](Cc2c(Cl)c[n+]([O-])cc2Cl)OC(=O)c2ccc(CNC(CO)(C(=O)O[C@H]3CN4CCC3CC4)c3ccccc3)s2)cc1OCC1CC1 (stereo in doubt; 11f),pIC50,[3],7
same,ED50,[14]; [25],7.9 nmol/kg
same,IC50,[4],1.58 nM
same,Ki,[5],0.398 nM
same,IC50,[6],0.794 nM
same,Activity,[15],80%
CCOc1cc([C@H](Cc2c(Cl)cncc2Cl)OC(=O)c2ccc(CN[C@@](CO)(C(=O)O[C@H]3CN4CCC3CC4)c3ccccc3)s2)ccc1OC,Ki,[5],3.16 nM
same,IC50,[6],7.94 nM
CCOc1cc([C@H](Cc2c(Cl)c[n+]([O-])cc2Cl)OC(=O)c2ccc(CN[C@](CO)(C(=O)O[C@H]3CN4CCC3CC4)c3ccccc3)s2)ccc1OC,Activity,[16],89%
same,Ratio ED50,[17],7.7
same,IC50,[3],3.98 nM
same,ED50,[14]; [25],3.1 nmol/kg
same,IC50,[4],0.398 nM
same,Ki,[5],0.251 nM
same,ED50,[18],0.024 µmol/kg
same,IC50,[6],0.631 nM
same,Activity,[19],82%
COc1ccc([C@H](Cc2c(Cl)c[n+]([O-])cc2Cl)OC(=O)c2ccc(CNC(CO)(C(=O)O[C@H]3CN4CCC3CC4)c3ccccc3)s2)cc1OCC1CC1 (stereo in doubt; 11s),pIC50,[3],7.8
same,pIC50,[4],8.5
same,Ki,[5],0.251 nM
same,IC50,[6],1.26 nM
COc1ccc([C@H](Cc2c(Cl)c[n+]([O-])cc2Cl)OC(=O)c2ccc(CNC(CO)(C(=O)O[C@H]3CN4CCC3CC4)c3ccccc3)s2)cc1OC (stereo in doubt; 3s),Activity,[16],81%
same,Ratio ED50,[17],20
same,CLH,[7],196 µL/min/mg
same,pIC50,[3],8.4
same,ED50,[14],0.8 nmol/kg
same,t1/2,[8],1.38 h
same,CLH,[9],189 µL/min/mg
same,t1/2,[10],1.3 h
same,pIC50,[4],9.2
same,Ki,[5],0.2 nM
same,ED50,[18],0.016 µmol/kg
same,IC50,[6],0.501 nM
same,Activity,[19],82%
same,t1/2,[12],1.95 h
COc1cc(C(=O)O[C@@H](Cc2c(Cl)c[n+]([O-])cc2Cl)c2ccc(OC)c(OC)c2)ccc1CNC(C(=O)O[C@H]1CN2CCC1CC2)c1ccccc1 (stereo partly specified),Ki,[5],0.631 nM
same,IC50,[6],5.01 nM
O=C(Nc1c(Cl)cncc1Cl)c1ccc(OC(F)F)c(OCC2CC2)c1 [ROFLUMILAST],Activity,[20],Toxic
same,Activity,[21],Toxic
same,Activity,[22],Toxic
same,Activity,[23],Toxic
COCC(NCc1ccc(C(=O)O[C@@H](Cc2c(Cl)c[n+]([O-])cc2Cl)c2ccc(OC)c(OC)c2)s1)(C(=O)O[C@H]1CN2CCC1CC2)c1ccccc1 (stereo in doubt; 4s),Ki,[5],5.01 nM
same,IC50,[6],1.58 nM
C[N+]1(C)[C@@H]2C[C@@H](OC(=O)C(O)(c3cccs3)c3cccs3)C[C@H]1[C@@H]1O[C@@H]12 [TIOTROPIUM],"inhibition at 10 min, 3000 µM",[24],62%
CCOc1cc([C@@H](Cc2c(Cl)c[n+]([O-])cc2Cl)OC(=O)c2ccc(CN[C@@](CO)(C(=O)O[C@H]3CN4CCC3CC4)c3ccccc3)s2)ccc1OC,Ki,[5],25.1 nM
same,IC50,[6],6.31 nM
